The results in this text go back to ChEMBL document CHEMBL2424541, “Anti-inflammatory effects of extracellular cyclosporins are exclusively mediated by CD147” (J Med Chem, 2013).

Series [1] deals with Mus musculus. Description: In vivo inhibition of extracellular cyclophilin-mediated monocytes recruitment in peritoneal fluid in thioglycollate challenged CD147-deficient C57BL6 mouse peritonitis model at 20 mg/kg, ip administered 3 hrs before thioglycollate challenge measured after 18 hrs. Type of series: functional, organism-based. Further details: dose 20 mg/kg.
The nature of series [2]: Cellular uptake in human Jurkat T cells assessed as displacemnet of [O-(2-acetamido)-D-serine]8-cyclosporine N-{(5-aminopentyl)-[2,3,6,7-tetrahydro-11-oxo-1H,5H,11Hbenzopyrano(6,7,8-ij)quinolizine-10-carboxyl amide] from intracellular compartments at 50 fold excess after 90 mins by flow cytometric analysis. Type of series: ADME, cell-based. The settings on record: 1.5 h. (In flow cytometry, cells or beads pass a laser one at a time.)

The subject of series [3] is Mus musculus. Description: In vivo inhibition of extracellular cyclophilin-mediated CD3+ T cells infiltration into TNCB challenged ear in CD147-deficient C57BL6 mouse allergic contact hypersensitivity model at 4 mg/kg, ip bid administered on day 4 to 6 prior to TNCB challenge by immunohistochemical analysis. The format is functional, organism-based. Also on record: dose 4 mg/kg. The settings on record: T-cell.

Series [4] concerns Mus musculus. Kind of series: In vivo inhibition of extracellular cyclophilin-mediated CD11b+ myeloid cells infiltration into TNCB challenged ear in CD147-deficient C57BL6 mouse allergic contact hypersensitivity model at 4 mg/kg, ip bid administered on day 4 to 6 prior to TNCB challenge by immunohistochemical analysis. Type of series: functional, organism-based. Further details: dose 4 mg/kg.

The subject of series [5] is Mus musculus. Description: In vivo inhibition of extracellular cyclophilin-mediated ear swelling in CD147-deficient TNCB challenged C57BL6 mouse at 4 mg/kg, ip bid administered on day 4 to 6. Further details: dose 4 mg/kg. Type of series: functional, organism-based.
Series [6] deals with Mus musculus. Description: In vivo inhibition of extracellular cyclophilin-mediated neutrophil recruitment in peritoneal fluid in thioglycollate challenged CD147-deficient C57BL6 mouse peritonitis model at 20 mg/kg, ip administered 3 hrs before thioglycollate challenge measured after 18 hrs. The format is functional, organism-based. Also on record: dose 20 mg/kg.
Series [7] concerns Leukocyte. Kind of series: Effect on fmlp-induced CD147-deficient mouse leukocytes migration from bone marrow. The format is functional.
Series [8] concerns Leukocyte. Kind of series: Effect on FCS-induced CD147-deficient mouse leukocytes migration from bone marrow. The format is functional.
The test system of series [9] is Leukocyte. Description: Effect on fmlp-induced wild type mouse leukocytes migration from bone marrow. Type of series: functional.
Series [10] relates to Leukocyte. Description: Effect on FCS-induced wild type mouse leukocytes migration from bone marrow. Type of series: functional.
For series [11], the system named is Mus musculus. Kind of series: In vivo inhibition of extracellular cyclophilin-mediated CD11b+ myeloid cells infiltration into TNCB challenged ear in C57BL6 mouse allergic contact hypersensitivity model at 4 mg/kg, ip bid administered on day 4 to 6 prior to TNCB challenge by immunohistochemical analysis. The format is functional, organism-based. Also on record: dose 4 mg/kg.

Series [12] concerns Mus musculus. Kind of series: In vivo inhibition of extracellular cyclophilin-mediated ear swelling in TNCB challenged C57BL6 mouse allergic contact hypersensitivity model at 4 mg/kg, ip bid administered on day 4 to 6 measured after 24 hrs. The format is functional, organism-based. Also on record: dose 4 mg/kg.
Series [13] concerns Mus musculus. Kind of series: In vivo inhibition of extracellular cyclophilin-mediated MMP-9 secretion in peritoneal fluid in thioglycollate challenged C57BL6 mouse peritonitis model at 20 mg/kg, ip administered for 3 hrs before thioglycollate challenge by gelatin zymographic analysis. The format is functional, organism-based. Further details: dose 20 mg/kg.
In series [14] the test system is Mus musculus. Kind of series: In vivo inhibition of extracellular cyclophilin-mediated IL-6 secretion in peritoneal fluid in thioglycollate challenged C57BL6 mouse peritonitis model at 20 mg/kg, ip administered for 3 hrs before thioglycollate challenge by ELISA. Also on record: dose 20 mg/kg. Type of series: functional, organism-based.
Series [15] has as its system Mus musculus. Kind of series: In vivo inhibition of extracellular cyclophilin-mediated neutrophils recruitment in peritoneal fluid of thioglycollate challenged C57BL6 mouse peritonitis model at 20 mg/kg, ip administered 3 hrs before thioglycollate challenge measured after 18 hrs. Type of series: functional, organism-based. Further details: dose 20 mg/kg.
The test system of series [16] is Mus musculus. Kind of series: In vivo inhibition of extracellular cyclophilin-mediated monocytes recruitment in peritoneal fluid of thioglycollate challenged C57BL6 mouse peritonitis model at 20 mg/kg, ip administered 3 hrs before thioglycollate challenge measured after 18 hrs. The format is functional, organism-based. Further details: dose 20 mg/kg.
For another series, the species on record is Homo sapiens. Description: Inhibition of calcineurin phosphatase activity (unknown origin) assessed as R2 phosphopeptide dephosphorylation up to 10 uM after 30 mins by malachite green staining assay in presence of calmodulin and CypA.
In series [17] the target is Peptidyl-prolyl cis-trans isomerase C (Homo sapiens, UniProt P45877). Description: Inhibition of CypC PPIase activity (unknown origin).
Series [18] has as its target T1, Peptidyl-prolyl cis-trans isomerase A (Homo sapiens, UniProt P62937). Kind of series: Inhibition of CypA PPIase activity (unknown origin) using Glt-(Ala)n-Pro-Phe-4-nitroanilides as substrate.
Target sequence in this assay (P62937 whole entry): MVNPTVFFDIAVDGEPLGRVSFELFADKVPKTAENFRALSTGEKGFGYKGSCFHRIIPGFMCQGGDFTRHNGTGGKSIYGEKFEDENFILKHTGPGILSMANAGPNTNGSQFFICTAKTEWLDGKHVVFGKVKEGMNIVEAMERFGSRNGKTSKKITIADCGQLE
Series [19] deals with Mus musculus. Kind of series: In vivo inhibition of extracellular cyclophilin-mediated CD3+ T cells infiltration into TNCB challenged ear in C57BL6 mouse allergic contact hypersensitivity model at 4 mg/kg, ip bid administered on day 4 to 6 prior to TNCB challenge by immunohistochemical analysis. Type of series: functional, organism-based. Further details: dose 4 mg/kg. The settings on record: T-cell.

For series [20], the target named is T1, Peptidyl-prolyl cis-trans isomerase A. The settings on record: 1 uM.
Target sequence in this assay (P62937 whole entry, looked up): as the sequence (P62937 whole entry) above
Description: Inhibition of recombinant human CypA-mediated CD147-deficient leukocyte migration from mouse bone marrow at 1 uM after 2 hrs
For series [21] the target is unchanged. The conditions noted are these: Spleen, T-cell, 1 uM.
Target sequence in this assay (P62937 whole entry, looked up): as the sequence (P62937 whole entry) above
Description: Inhibition of recombinant human CypA-mediated PMA/ionomycin-induced CD3+ T cell migration from mouse spleen at 1 uM after 2 hrs
Series [22] shares this target. The settings on record: myeloid, 1 uM.
Target sequence in this assay (P62937 whole entry, looked up): as the sequence (P62937 whole entry) above
Description: Inhibition of recombinant human CypA-mediated CD11b+ myeloid cell migration from mouse bone marrow at 1 uM after 2 hrs
The target is the same in series [23]. The conditions noted are these: 1 uM. This is another data set of the same source.
Target sequence in this assay (P62937 whole entry, looked up): as the sequence (P62937 whole entry) above
Description: Inhibition of recombinant human CypA-mediated leukocyte migration from mouse bone marrow at 1 uM after 2 hrs
Series [24] shares this target. The conditions noted are these: HeLa, 2 uM.
Target sequence in this assay (P62937 whole entry, looked up): as the sequence (P62937 whole entry) above
Description: Inhibition of CypA-mediated ERK phosphorylation in serum-starved human HeLa cells at 2 uM after 5 mins by Western blotting analysis
Series [25] is described as follows: Cellular uptake in human Jurkat T cells assessed as displacemnet of [O-(2-acetamido)-D-serine]8-cyclosporine N-{(5-aminopentyl)-[2,3,6,7-tetrahydro-11-oxo-1H,5H,11Hbenzopyrano(6,7,8-ij)quinolizine-10-carboxyl amide] from intracellular compartments after 90 mins by flow cytometric analysis. Type of series: ADME, cell-based. The conditions noted are these: 1.5 h.

Series [26] is described as follows: Inhibition of calcineurin phosphatase activity (unknown origin) assessed as R2 phosphopeptide dephosphorylation after 30 mins by malachite green staining assay in presence of calmodulin and CypA.

Each structure is given as a SMILES string. Calls of active or inactive are those of the source. No cut-off for these calls is given here.

Chain of Peptidyl-prolyl cis-trans isomerase C (P45877 whole entry): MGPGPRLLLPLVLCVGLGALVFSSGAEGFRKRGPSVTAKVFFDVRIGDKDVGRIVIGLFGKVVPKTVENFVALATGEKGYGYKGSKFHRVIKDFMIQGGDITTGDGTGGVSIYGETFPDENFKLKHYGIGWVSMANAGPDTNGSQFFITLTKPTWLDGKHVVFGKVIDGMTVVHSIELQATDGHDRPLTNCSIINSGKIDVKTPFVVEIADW

What is called Ki is the dissociation constant of the complex between target and ligand, obtained from inhibition or displacement. High values mean weaker binding, low ones tighter binding. Turning to `CC[C@@H]1NC(=O)[C@H]([C@H](O)[C@H](C)Cc2nc3ccc(C(=O)O)cc3[nH]2)N(C)C(=O)[C@H](C(C)C)N(C)C(=O)[C@H](CC(C)C)N(C)C(=O)[C@H](CC(C)C)N(C)C(=O)[C@@H](C)NC(=O)[C@H](C)NC(=O)[C@H](CC(C)C)N(C)C(=O)[C@H](C(C)C)NC(=O)[C@H](CC(C)C)N(C)C(=O)CN(C)C1=O`, the inhibition result with Mus musculus [1], with Mus musculus [3], with Mus musculus [4], in the series on Mus musculus [5], in the series on Mus musculus [6] and in the series filed under Homo sapiens was “inactive” throughout. For the same compound, the inhibition entry in series [20] was “inactive”. For the same compound, the Drug uptake result in series [2] was “Not Active”. Also, the result in the series on Leukocyte [7], in the series on Leukocyte [8], in the series with Leukocyte [9] and with Leukocyte [10] was inactive. Moreover, the inhibition result in the series with Mus musculus [11], in the series with Mus musculus [12], with Mus musculus [13], in the series with Mus musculus [14], in the series on Mus musculus [15] and in the series with Mus musculus [16] was “Active” throughout. The inhibition result (in the series on Mus musculus [19]; in series [21]; in series [22]; in [23]; in [24]) was “Active” each time. The Ki came to 118 nM in series [17] and 10.7 nM in series [18].
The term IC50 denotes the concentration that inhibits the measured activity by half. For `CC[C@@H]1NC(=O)[C@H]([C@H](O)[C@H](C)Cc2nc3ccccc3c(=O)[nH]2)N(C)C(=O)[C@H](C(C)C)N(C)C(=O)[C@H](CC(C)C)N(C)C(=O)[C@H](CC(C)C)N(C)C(=O)[C@@H](C)NC(=O)[C@H](C)NC(=O)[C@H](CC(C)C)N(C)C(=O)[C@H](C(C)C)NC(=O)[C@H](CC(C)C)N(C)C(=O)CN(C)C1=O`, the Drug uptake entry in [25] was “Active”. Further, in series [26], the IC50 was 4600 nM.
For the compound `CC[C@@H]1NC(=O)[C@H]([C@H](O)[C@H](C)Cc2nc3ccccc3[nH]2)N(C)C(=O)[C@H](C(C)C)N(C)C(=O)[C@H](CC(C)C)N(C)C(=O)[C@H](CC(C)C)N(C)C(=O)[C@@H](C)NC(=O)[C@H](C)NC(=O)[C@H](CC(C)C)N(C)C(=O)[C@H](C(C)C)NC(=O)[C@H](CC(C)C)N(C)C(=O)CN(C)C1=O`, the Drug uptake result in [25] is “Active”. Besides, the IC50 in [26] turned out to be 1200 nM.
For the compound `CC[C@@H]1NC(=O)[C@H]([C@H](O)[C@H](C)CC2=Nc3ccccc3CN2)N(C)C(=O)[C@H](C(C)C)N(C)C(=O)[C@H](CC(C)C)N(C)C(=O)[C@H](CC(C)C)N(C)C(=O)[C@@H](C)NC(=O)[C@H](C)NC(=O)[C@H](CC(C)C)N(C)C(=O)[C@H](C(C)C)NC(=O)[C@H](CC(C)C)N(C)C(=O)CN(C)C1=O`, the Drug uptake entry in series [25] is “Active”. The inhibition entry in the series filed under Homo sapiens is “inactive”.
`CC[C@@H]1NC(=O)[C@H]([C@H](O)[C@H](C)Cc2nc3ccccc3s2)N(C)C(=O)[C@H](C(C)C)N(C)C(=O)[C@H](CC(C)C)N(C)C(=O)[C@H](CC(C)C)N(C)C(=O)[C@@H](C)NC(=O)[C@H](C)NC(=O)[C@H](CC(C)C)N(C)C(=O)[C@H](C(C)C)NC(=O)[C@H](CC(C)C)N(C)C(=O)CN(C)C1=O`: the Drug uptake entry in [25] was “Active”. Besides, the half-inhibitory concentration (IC50) in series [26] is 4500 nM. Also, the affinity in [18], expressed as Ki, was 36.6 nM.
In the case of `CC[C@@H]1NC(=O)[C@H]([C@H](O)[C@H](C)Cc2nc3ccc(C(=O)OC)cc3[nH]2)N(C)C(=O)[C@H](C(C)C)N(C)C(=O)[C@H](CC(C)C)N(C)C(=O)[C@H](CC(C)C)N(C)C(=O)[C@@H](C)NC(=O)[C@H](C)NC(=O)[C@H](CC(C)C)N(C)C(=O)[C@H](C(C)C)NC(=O)[C@H](CC(C)C)N(C)C(=O)CN(C)C1=O`, the Drug uptake result in series [25] is “Active”. For the same compound, the IC50 in [26] is 6900 nM. The Ki in [18] amounted to 11.8 nM.
Regarding `CC[C@@H]1NC(=O)[C@H]([C@H](O)[C@H](C)Cc2nc3ccc(C)cc3[nH]2)N(C)C(=O)[C@H](C(C)C)N(C)C(=O)[C@H](CC(C)C)N(C)C(=O)[C@H](CC(C)C)N(C)C(=O)[C@@H](C)NC(=O)[C@H](C)NC(=O)[C@H](CC(C)C)N(C)C(=O)[C@H](C(C)C)NC(=O)[C@H](CC(C)C)N(C)C(=O)CN(C)C1=O`, in [25], the Drug uptake entry is on record as “Active”. Also, the IC50 in [26] worked out at 3400 nM. In series [18], this compound yielded an inhibitory constant (Ki) of 12.4 nM.
For the compound `CC[C@@H]1NC(=O)[C@H]([C@H](O)[C@H](C)Cc2nc3ccc(C(C)C)cc3[nH]2)N(C)C(=O)[C@H](C(C)C)N(C)C(=O)[C@H](CC(C)C)N(C)C(=O)[C@H](CC(C)C)N(C)C(=O)[C@@H](C)NC(=O)[C@H](C)NC(=O)[C@H](CC(C)C)N(C)C(=O)[C@H](C(C)C)NC(=O)[C@H](CC(C)C)N(C)C(=O)CN(C)C1=O`, the Drug uptake result in series [25] is recorded as “Active”. Moreover, in [26], the IC50 is more than 10000 nM. Further, in series [18], the inhibition constant Ki amounted to 43.9 nM.
